According to ChEMBL document CHEMBL3045590, “Design, synthesis, bioactivity, and structure-activity relationship (SAR) studies of novel benzoylphenylureas containing oxime ether group” (2008):
≈ marks a conversion by molar mass, not a printed value.

What was measured:
Format in all cases: functional
Cucumis sativus = assay: Growth regulation of Cucumis sativus (cucumber) seeds assessed as stimulation of radicle growth at 10 mg/l at 26 degC after 5 days
Culex pipiens pallens [1] = assay: Larvicidal activity against fourth-instar larval stage of Culex pipiens pallens (mosquito) assessed as mortality at 0.25 mg/l at 25 +/-1 degC after 8 days; settings: 192 h
Culex pipiens pallens [2] = assay: Larvicidal activity against fourth-instar larval stage of Culex pipiens pallens (mosquito) assessed as mortality at 0.5 mg/l at 25 +/-1 degC after 8 days; settings: 192 h
Culex pipiens pallens [3] = assay: Larvicidal activity against fourth-instar larval stage of Culex pipiens pallens (mosquito) assessed as mortality at 1 mg/l at 25 +/-1 degC after 8 days; settings: 192 h
Culex pipiens pallens [4] = assay: Larvicidal activity against fourth-instar larval stage of Culex pipiens pallens (mosquito) assessed as mortality at 0.025 mg/l at 25 +/-1 degC after 8 days; settings: 192 h
Culex pipiens pallens [5] = assay: Larvicidal activity against fourth-instar larval stage of Culex pipiens pallens (mosquito) assessed as mortality at 0.1 mg/l at 25 +/-1 degC after 8 days; settings: 192 h
Mythimna separata [6] = assay: Larvicidal activity against fourth-instar larval stage of Mythimna separata (Oriental armyworm) in compound-pretreated corn leaves assessed as mortality at 10 mg/l at 25 +/-1 degC after 4 days
Mythimna separata [7] = assay: Larvicidal activity against fourth-instar larval stage of Mythimna separata (Oriental armyworm) in compound-pretreated corn leaves assessed as mortality at 50 mg/l at 25 +/-1 degC after 4 days
Mythimna separata [8] = assay: Larvicidal activity against fourth-instar larval stage of Mythimna separata (Oriental armyworm) in compound-pretreated corn leaves assessed as mortality at 25 mg/l at 25 +/-1 degC after 4 days
Mythimna separata [9] = assay: Larvicidal activity against fourth-instar larval stage of Mythimna separata (Oriental armyworm) in compound-pretreated corn leaves assessed as mortality at 100 mg/l at 25 +/-1 degC after 4 days
Culex pipiens pallens [10] = assay: Larvicidal activity against fourth-instar larval stage of Culex pipiens pallens (mosquito) assessed as mortality at 0.01 mg/l at 25 +/-1 degC after 8 days; settings: 192 h
Culex pipiens pallens [11] = assay: Larvicidal activity against fourth-instar larval stage of Culex pipiens pallens (mosquito) assessed as mortality at 0.05 mg/l at 25 +/-1 degC after 8 days; settings: 192 h
Mythimna separata [12] = assay: Larvicidal activity against fourth-instar larval stage of Mythimna separata (Oriental armyworm) in compound-pretreated corn leaves assessed as mortality at 200 mg/l at 25 +/-1 degC after 4 days
Culex pipiens pallens [13] = assay: Larvicidal activity against fourth-instar larval stage of Culex pipiens pallens (mosquito) assessed as mortality at 0.0025 mg/l at 25 +/-1 degC after 8 days; settings: 192 h
Culex pipiens pallens [14] = assay: Larvicidal activity against fourth-instar larval stage of Culex pipiens pallens (mosquito) assessed as mortality at 0.005 mg/l at 25 +/-1 degC after 8 days; settings: 192 h
Mythimna separata [15] = assay: Larvicidal activity against fourth-instar larval stage of Mythimna separata (Oriental armyworm) in compound-pretreated corn leaves assessed as mortality at 2.5 mg/l at 25 +/-1 degC after 4 days
Mythimna separata [16] = assay: Larvicidal activity against fourth-instar larval stage of Mythimna separata (Oriental armyworm) in compound-pretreated corn leaves assessed as mortality at 25 +/-1 degC after 4 days
Mythimna separata [17] = assay: Larvicidal activity against fourth-instar larval stage of Mythimna separata (Oriental armyworm) in compound-pretreated corn leaves assessed as mortality at 5 mg/l at 25 +/-1 degC after 4 days
Culex pipiens pallens [18] = assay: Larvicidal activity against fourth-instar larval stage of Culex pipiens pallens (mosquito) assessed as mortality at 0.001 mg/l at 25 +/-1 degC after 8 days; settings: 192 h
Mythimna separata [19] = assay: Larvicidal activity against fourth-instar larval stage of Mythimna separata (Oriental armyworm) in compound-pretreated corn leaves assessed as mortality at 1 mg/l at 25 +/-1 degC after 4 days

| SMILES | Activity (Cucumis sativus) | mortality at 0.25 µg/mL (Culex pipiens pallens [1]) | mortality at 0.5 µg/mL (Culex pipiens pallens [2]) | mortality at 1 µg/mL (Culex pipiens pallens [3]) | mortality at 0.025 µg/mL (Culex pipiens pallens [4]) | mortality at 0.1 µg/mL (Culex pipiens pallens [5]) | mortality at 10 µg/mL (Mythimna separata [6]) | mortality at 50 µg/mL (Mythimna separata [7]) | mortality at 25 µg/mL (Mythimna separata [8]) | mortality at 100 µg/mL (Mythimna separata [9]) | mortality at 0.01 µg/mL (Culex pipiens pallens [10]) | mortality at 0.05 µg/mL (Culex pipiens pallens [11]) | mortality at 200 µg/mL (Mythimna separata [12]) | mortality at 0.0025 µg/mL (Culex pipiens pallens [13]) | mortality at 0.005 µg/mL (Culex pipiens pallens [14]) | mortality at 2.5 µg/mL (Mythimna separata [15]) | LC50 (Mythimna separata [16]) | mortality at 5 µg/mL (Mythimna separata [17]) | mortality at 0.001 µg/mL (Culex pipiens pallens [18]) | mortality at 1 µg/mL (Mythimna separata [19]) |
| --- | --- | --- | --- | --- | --- | --- | --- | --- | --- | --- | --- | --- | --- | --- | --- | --- | --- | --- | --- | --- |
| C=CCO/N=C/c1ccc(NC(=O)NC(=O)c2c(F)cccc2F)cc1 | 120% | 100% | 100% | 100% | 0% | 90% | 0% | 66.7% | 10% | 90% | – | – | – | – | – | – | – | – | – | – |
| CO/N=C/c1ccc(NC(=O)NC(=O)c2c(F)cccc2F)cc1 | 30% | 100% | 100% | 100% | 10% | 100% | – | 40% | 0% | 90% | 0% | 100% | – | – | – | – | – | – | – | – |
| CCCCO/N=C/c1ccc(NC(=O)NC(=O)c2c(F)cccc2F)cc1 | 50% | 100% | 100% | 100% | 0% | 100% | – | 0% | – | 40% | – | 100% | 50% | – | – | – | – | – | – | – |
| O=C(NC(=O)c1c(F)cccc1F)Nc1ccc(/C=N/OC2CCCC2)cc1 | 85% | 100% | 100% | 100% | 0% | 100% | – | 0% | – | 20% | – | 10% | 70% | – | – | – | – | – | – | – |
| CCCC(C)O/N=C/c1ccc(NC(=O)NC(=O)c2c(F)cccc2F)cc1 (stereo not given) | 45% | – | – | – | 100% | 100% | 20% | 80% | 70% | – | 40% | 100% | – | 10% | 20% | 0% | – | – | – | – |
| O=C(NC(=O)c1c(F)cccc1F)Nc1ccc(/C=N/OCc2ccccc2)cc1 | 60% | 20% | 100% | 100% | – | 10% | – | 10% | 0% | 30% | – | – | 40% | – | – | – | – | – | – | – |
| O=C(NC(=O)c1ccccc1Cl)Nc1ccc(Cl)cc1 [CHLORBENZURON] | – | – | – | – | – | – | – | – | – | – | – | – | – | – | – | – | 2.29 µg/mL (≈ 7.41 µM) | – | – | – |
| CCO/N=C/c1ccc(NC(=O)NC(=O)c2c(F)cccc2F)cc1 | 0% | 100% | 100% | 100% | 10% | 100% | 10% | 100% | 75% | 100% | 0% | – | – | – | – | – | – | 0% | – | – |
| O=C(NC(=O)c1c(F)cccc1F)Nc1ccc(/C=N/OCC2CC2)cc1 | – | – | – | – | – | – | 100% | – | 100% | – | 100% | – | – | 60% | 100% | 90% | – | 100% | 0% | 0% |
| C#CCO/N=C/c1ccc(NC(=O)NC(=O)c2c(F)cccc2F)cc1 | – | 100% | 100% | 100% | 10% | 100% | 55% | 100% | 75% | – | 0% | 40% | – | – | – | 10% | – | – | – | 0% |
